“Also recorded” adds a separate entry of the source.
Legend:
E. coli strain ML2 = assay: Cell growth (OD600) / toxicity of unnatural ribonucleoside triphosphates under ribonucleotide screening conditions; format: cell-based; conditions: for OD600: after 3 h of protein induction; for Cell growth / toxicity: YTP at the higher concentration (250 μM)
Protocol: In vivo Translation Screen of XTPs/YTPs. An overnight culture of the SSO strain ML2 carrying the pGEX-MbPylRS TetR plasmid was grown in 2×YT supplemented with 50 mM potassium phosphate, […] chloramphenicol and 100 μg/mL carbenicillin (herein referred to in this section as “media”), then diluted back to an OD600 of 0.03 in the same media and grown to an OD600 of 0.4 to 0.6. The culture was then chilled with shaking over ice-water for 15 minutes then pelleted by centrifugation at 3,200×g for 10 min. Cells were then resuspended and washed with ice-cold ddH2O twice then resuspended in ice-cold ddH2O to OD600 of 55-65. The electrocompetent cells (50 μL) and 1 ng of Golden Gate assembled plasmid with the UBP within the sfGFP and tRNAPyl genes (see Golden Gate Assembly of Plasmids) were transferred to a pre-chilled electroporation cuvette (0.2-cm-gap), then electroporated (Gene Pulser II; Bio-Rad) according to manufacturer's recommendations (voltage […], capacitor 2.5 μF, resistor 200Ω), and then immediately diluted with 950 μL of media. […] Two-fold dilutions of the recovery were plated onto solid media supplemented with zeocin (50 μg/mL), dCNMOTP (10 μM), dTPT3TP (10 μM), and agar (2% w/v), then grown at 37° C. for 18 h. […] An aliquot (50 μL) was subjected to plasmid isolation using the ZR Plasmid Prep Kit (Zymo Research). Isolated plasmids were then subjected to the streptavidin gel shift assay described below (using primers P3-4 and P5-6, Table S1) to determine UBP retention.
Samples were shielded from light after addition of AzK to prevent photodegradation. These samples were then grown at 37° C. for 20 min before adding 1 mM IPTG and grown at 37° C. for an additional 1 h to induce T7 RNAP and transcription of tRNAPyl and PylRS. From this point on, cells were monitored for growth and fluorescence. Expression of sfGFP was then induced with anhydrotetracycline (100 ng/mL).
Examining the Toxicity of Ribonucleoside Triphosphates. An overnight culture of ML2 was grown in 2×YT media supplemented with 50 mM potassium phosphate and chloramphenicol (5 μg/mL), referred to throughout this section as “media”. This culture was diluted back to an OD600 of 0.01 split into multiple 300 μL cultures, each supplemented with varying concentrations of TPT3TP, TAT1TP, NaMTP, or 5FMTP, along with a no triphosphate control. The cultures were then incubated at 37° C. with shaking at 230 rpm. […] OD600 was then plotted as a function of time for each nucleotide at each concentration to visualize differences in growth rates.

sfGFP^151(AXC) [1] = assay: In vivo translation screen of XTPs/YTPs: protein shift (AzK incorporation) by DBCO-TAMRA western blot; format: cell-based, E. coli; conditions: TPT3TP 30 μM, dCNMO-dTPT3 UBP, strain ML2
Protocol: (§1) In vivo Translation Screen of XTPs/YTPs. An overnight culture of the SSO strain ML2 carrying the pGEX-MbPylRS TetR plasmid was grown in 2×YT supplemented with 50 mM potassium phosphate, […] chloramphenicol and 100 μg/mL carbenicillin (herein referred to in this section as “media”), then diluted back to an OD600 of 0.03 in the same media and grown to an OD600 of 0.4 to 0.6. The culture was then chilled with shaking over ice-water for 15 minutes then pelleted by centrifugation at 3,200×g for 10 min. Cells were then resuspended and washed with ice-cold ddH2O twice then resuspended in ice-cold ddH2O to OD600 of 55-65. The electrocompetent cells (50 μL) and 1 ng of Golden Gate assembled plasmid with the UBP within the sfGFP and tRNAPyl genes (see Golden Gate Assembly of Plasmids) were transferred to a pre-chilled electroporation cuvette (0.2-cm-gap), then electroporated (Gene Pulser II; Bio-Rad) according to manufacturer's recommendations (voltage […], capacitor 2.5 μF, resistor 200Ω), and then immediately diluted with 950 μL of media. An aliquot (40 μL) of the transformation was then diluted five-fold in media supplemented with dCNMOTP (25 μM) and dTPT3TP (10 μM) for a final volume of 200 μL then allowed to recover for 1 h shaking at 37° C. Two-fold dilutions of the recovery were plated onto solid media supplemented with zeocin (50 μg/mL), dCNMOTP (10 μM), dTPT3TP (10 μM), and agar (2% w/v), then grown at 37° C. for 18 h. Single colonies were picked and grown in media (300 μL) supplemented with 50 μg/mL zeocin and provided dCNMOTP (25 μM) and dTPT3TP (10 μM) (herein afterward referred to in this section as “growth media”). The culture was monitored for cell growth (Envision 2103 Multilabel Plate Reader with a 590/20 nm filter) and then collected at an OD600˜1.0. An aliquot (50 μL) was subjected to plasmid isolation using the ZR Plasmid Prep Kit (Zymo Research). Isolated plasmids were then subjected to the streptavidin gel shift assay described below (using primers P3-4 and P5-6, Table S1) to determine UBP retention.
(§2) A colony with excellent UBP retention was then diluted to an OD600˜0.01 in growth media and grown to OD600˜0.4-0.6. This culture was then divided into multiple 300 μL cultures and for the screen of XTP analogs, each was provided with the corresponding XTP (at either 25 μM or 250 μM) or ddH2O for “−XTP” samples, TPT3TP (30 μM), and AzK (10 mM). For the screen of YTP analogs, each 300 μL culture was provided with the corresponding YTP (at either 25 μM or 250 μM) or ddH2O for “−YTP” samples, NaMTP (250 μM), and AzK (10 mM). Samples were shielded from light after addition of AzK to prevent photodegradation. These samples were then grown at 37° C. for 20 min before adding 1 mM IPTG and grown at 37° C. for an additional 1 h to induce T7 RNAP and transcription of tRNAPyl and PylRS. From this point on, cells were monitored for growth and fluorescence. Expression of sfGFP was then induced with anhydrotetracycline (100 ng/mL). After an additional 3 h of growth at 37° C., cells were collected (230 μL for affinity purification of sfGFP), cooled, and then pelleted and stored at −80° C. before protein purification.
Affinity Purification of sfGFP. Cell pellets collected from translation experiments were resuspended in BugBuster (100 μL 1×, EMD Millipore) and shaken at room temperature for 15 min. […]

sfGFP^151(AXC) [2] = assay: In vivo translation screen of XTPs/YTPs: total sfGFP fluorescence; format: cell-based, E. coli
Protocol: as §1, §2
An SAR analysis was initiated with NaMTP and the nine XTP analogs. Based on performance in the dXTP screen described above, and to eliminate variable loss at the DNA level as a complicating factor, the unnatural information was encoded with the dCNMO-dTPT3 UBP. Additionally, the E. coli strain ML2, which expresses the nucleoside triphosphate transporter PtNTT2, but has also been genetically engineered for higher fidelity replication of the UBP by deletion of the gene encoding RecA (as is common in cloning strains) and overexpression of DNA Pol II was used. The same plasmid described above in Examples 1A and 1, harboring sfGFP^151(AXC) and tRNA^Pyl(GYT), was used, and to focus the screen to a single unnatural ribonucleotide, the M. mazei Pyl tRNA was transcribed in the presence of 30 μM TPT3TP. […]

sfGFP^151(AXC) [3] = assay: Optimization of unnatural ribonucleotide triphosphate concentrations (sfGFP fluorescence and protein shift); format: cell-based, E. coli
Protocol: Examples 1A, 1B, and 2 identified dCNMO-dTPT3 as a competent UBP for the storage of information, and TAT1TP and NaMTP or 5FMTP as competent ribonucleoside triphosphates for its retrieval. Upon transformation with the same plasmids used above, 10 μM dTPT3TP and 25 μM dCNMOTP were provided in the growth media, which was then also supplemented with TAT1TP at concentrations ranging from 100 μM to 12.5 μM, and either NaMTP or 5FMTP at concentrations ranging from 200 μM to 12.5 μM, all in series of 2-fold dilutions, and after the addition of 1 mM AzK, the cells were induced to express sfGFP. […] In both cases, fluorescence was higher at lower concentrations of NaMTP or 5FMTP (due to increased production of contaminating natural sfGFP, see below). Additionally, cells generally produced higher fluorescence at higher concentrations of TAT1TP. […] Protein production was again quantified via the gel shift assay (FIG. 6C and FIG. 6D). Generally, as the concentration of NaMTP decreased below 200 μM, incrementally lower fidelity of AzK incorporation into sfGFP was observed, while with use of 5FMTP this reduction in fidelity was only observed below a concentration of 50 μM. Clearly lower concentrations of 5FMTP can be used without compromising fidelity. Cells provided with a high concentration of 5FMTP (≥50 µM) produced high protein shifts at all concentrations of TAT1TP explored (100 μM, 50 μM, 25 μM, or 12.5 μM).
Optimization of in vivo Translation Conditions. An overnight culture of the SSO strain ML2 carrying the pGEX-MbPylRS TetR plasmid was grown in 2×YT supplemented with 50 mM potassium phosphate, […] chloramphenicol and 100 μg/mL carbenicillin (herein referred to in this section as “media”), then diluted back to an OD600 of 0.03 in the same media and grown to an OD600 of 0.4-0.6. The culture was then chilled with shaking over ice-water for 15 min then pelleted by centrifugation at 3,200×g for 10 min. Cells were then resuspended and washed with ice-cold ddH2O twice then resuspended in ice-cold ddH2O to an OD600 of 55-65. The electrocompetent cells (50 μL) and ˜1 ng of Golden Gate assembled plasmid with the UBP within the sfGFP and tRNAPyl genes (see Golden Gate Assembly of Plasmids) were transferred to a pre-chilled electroporation cuvette (0.2-cm-gap), then electroporated (Gene Pulser II; Bio-Rad) according to manufacturer's recommendations (voltage […], capacitor 2.5 μF, resistor 200Ω), and then immediately diluted with 950 μL of media. […] The culture was monitored for cell growth (Envision 2103 Multilabel Plate Reader with a 590/20 nm filter) and then collected at an OD600˜1.0. […]

## COc1ccc(F)cc1[C@@H]1O[C@H](COP(=O)(O)OP(=O)(O)OP(=O)(O)O)[C@@H](O)[C@H]1O [Compound 5F2OMeTP]
E. coli strain ML2; XTP 25 μM
  OD600: 1.14 ± 0.05
E. coli strain ML2; XTP 250 μM
  OD600: 1.16 ± 0.07
sfGFP^151(AXC) [1]; XTP 250 μM
  sfGFP protein gel shift (ncAA incorporation): 94%

## O=P(O)(O)OP(=O)(O)OP(=O)(O)OC[C@H]1O[C@@H](n2ccc3ccsc3c2=S)[C@H](O)[C@@H]1O [TPT3TP]
sfGFP^151(AXC) [2]; YTP 25 μM
  Greater fluorescence than 5SICSTP: 6 fold
  Greater fluorescence than FSICSTP: 5 fold
  Greater fluorescence than SICSTP: 2 fold
  Protein production: significant quantities of pure protein
sfGFP^151(AXC) [2]; YTP 250 μM, NaMTP 250 μM
  sfGFP fluorescence relative to control without YTP: little fluorescence
E. coli strain ML2; YTP at lower concentrations (25 μM)
  Toxicity: somewhat less toxic
E. coli strain ML2
  Cell growth / toxicity: significantly reduced cell growth; also recorded: at least slightly toxic

## O=P(O)(O)OP(=O)(O)OP(=O)(O)OC[C@H]1O[C@@H](n2ccc3ccccc3c2=S)[C@H](O)[C@@H]1O [SICSTP]
E. coli strain ML2; YTP 25 μM
  OD600: 1.25 ± 0.10
E. coli strain ML2; YTP 250 μM
  OD600: 0.90 ± 0.04
E. coli strain ML2
  Cell growth / toxicity: at least slightly toxic

## COc1cc2ccccc2cc1[C@@H]1O[C@H](COP(=O)(O)OP(=O)(O)OP(=O)(O)O)[C@@H](O)[C@H]1O [NaMTP]
sfGFP^151(AXC) [3]; NaMTP and TAT1TP pair
  Concentration for combined optimization of protein purity and yield: 200 µM
sfGFP^151(AXC) [3]; with TAT1TP 12.5-100 μM
  XTP concentration below which lower fidelity of AzK incorporation into sfGFP was observed: 200 µM
sfGFP^151(AXC) [1]; XTP 25 μM
  sfGFP protein gel shift (ncAA incorporation): 86%
sfGFP^151(AXC) [1]; XTP 250 μM
  sfGFP protein gel shift (ncAA incorporation): 98%

— US11879145B2, “Reagents and methods for replication, transcription, and translation in semi-synthetic organisms” (The Scripps Research Institute, priority 2019, dated 2024)
